Results from patent US6489302B1, “Saccharide conjugates” (Deutches Krebsforschungszentrum Stiftung Des Offentlichen …, priority 1995, dated 2002).

Tests used:
tumor = experiment: Applicant's finding: anti-tumor properties
[1] = Whole-body autoradiography of the 14C-labeled conjugate in rats after i.v. injection (organ distribution); format: in vivo, rat
Experimental: (§1) This conjugate was labeled with ^14C according to common methods and used for the following treatment of rats.
(§2) The rats used were female Sprague-Dawley rats (SD rats; obtainable from Charles River Wiga, Sulzfeld, Germany) and male Copenhagen rats (obtainable from Harlan Sprague Dawley, Ind., U.S.A.).
(§3) Groups of 5 healthy SD rats were given i.v. injections of 315 mg/kg β-D-Glc-IMP and 56.2 mg/kg of β-D-Glc-IMP, respectively. 5 of the tumor-bearing Copenhagen rats were given 315 mg/kg of β-D-Glc-IMP. The radioactive dose per injection was about 20 μCi. One animal of every group was killed with CO2 10 minutes, 1 hours, 2 hours, 8 hours and 24 hours, respectively, after the administration of the injection. The tissues of the rats were prepared for a common microtome preparation and the sections were subjected to autoradiography as described by Ullberg, S., (1977), in: Alvefeldt, O. (ed.) Special issue on whole-body autoradiography. Science Tools, Bromma, Sweden, p. 2).

[2] = Applicant's finding: side-effects; conditions: as compared to cyclophosphoramide and isophosphoramide
[3] = test system: Dunning prostate tumor tissue; experiment: Whole-body autoradiography of the 14C-labeled conjugate in tumor-bearing Copenhagen rats; format: in vivo, rat; conditions: Copenhagen rats with transplanted Dunning prostate tumor, 315 mg/kg i.v.
Source text: as §1, §2
Fresh pieces (2×2 mm) of Dunning prostate tumor tissue were transplanted into the Copenhagen rats. The tumors were allowed to grow for about one week until they were well palpable but not yet necrotic.
as §3

O=P(NCCCl)(NCCCl)OC1OC(CO)C(O)C(O)C1O [β-D-Glc-IMP, β-D-Glucosylisophosphoramide]
anti-tumor properties (tumor): good anti-tumor properties | accumulation in organs, particularly the liver, kidneys, thymus and thyroid gland ([1]; 10 minutes after i.v. injection, 315 mg/kg or 56.2 mg/kg): accumulated in organs | presence in central nervous system, including the brain ([1]; 8 hours after i.v. injection): contained the conjugate | side-effects [2]: extremely low side-effects | accumulation in tumor tissue [3]: strong accumulation
